# Laboratory results: US9187424B1, “Aryl dihydropyridinones and piperidinone MGAT2 inhibitors” (Bristol-Myers Squibb Company, priority 2011, dated 2015)
# Target: Human MGAT-2 (Homo sapiens (Human), UniProt Q3SYC2)
# Test: MGAT LCMS Assay (human MGAT-2);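 note: diolein product quantified by LC/MS with positive APCI, expressed as peak area ratio versus an internal standard, and this ratio used to derive IC50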
# Assay type: biochemical
# Conditions: human MGAT-2 membranes expressed in Sf9 cells; 2-oleoylglycerol and oleoyl-Coenzyme A; read-out: h-MGAT2 IC50 (nM) LCMS Assay
# Sequence of Human MGAT-2 (Q3SYC2 whole entry): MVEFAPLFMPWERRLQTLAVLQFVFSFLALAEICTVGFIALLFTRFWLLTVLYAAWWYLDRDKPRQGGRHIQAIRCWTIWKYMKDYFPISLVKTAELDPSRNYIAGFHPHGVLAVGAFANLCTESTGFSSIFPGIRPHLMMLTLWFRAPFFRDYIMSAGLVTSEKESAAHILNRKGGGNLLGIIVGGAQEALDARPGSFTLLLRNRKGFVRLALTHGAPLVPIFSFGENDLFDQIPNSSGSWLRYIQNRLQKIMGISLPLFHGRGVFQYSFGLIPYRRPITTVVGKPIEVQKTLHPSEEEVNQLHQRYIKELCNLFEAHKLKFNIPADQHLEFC
row,IC50,Compound
1,374 nM,"Cc1ccc(C2=C(c3nn[nH]n3)C(=O)NC(c3cnn(CCCCC(F)(F)F)c3)(C(F)(F)F)C2)cc1 (stereo not drawn) [Example 12, 3-(2H-Tetrazol-5-yl)-4-p-tolyl-6-(trifluoromethyl)-6-(1-(5,5,5-trifluoropentyl)-1H-pyrazol-4-yl)-5,6-dihydropyridin-2(1H)-one]"
2,1220 nM,Cc1ccc(C2=C(C(=O)Nc3cn(C)cn3)C(=O)NC(c3ccc(OCCCC(F)(F)F)cc3)(C(F)(F)F)C2)cc1 (stereo not drawn) [Example 87]
3,136 nM,CCOc1ccc(C2=C(c3nn[nH]n3)C(=O)NC(c3ccc(OCCCC(F)(F)F)cc3)(C(F)(F)F)C2)cc1 (stereo not drawn) [Example 92]
4,1430 nM,Cc1cccc(C2=C(c3nn[nH]n3)C(=O)NC(c3ccc(OCCCC(F)(F)F)cc3)(C(F)(F)F)C2)c1 (stereo not drawn) [Example 96]
5,1200 nM,O=C1NC(c2ccc(OCCCC(F)(F)F)cc2)(C(F)(F)F)CC(c2ccccc2)=C1c1nn[nH]n1 (stereo not drawn) [Example 97]
6,795 nM,O=C1NC(c2ccc(OCCCC(F)(F)F)cc2)(C(F)(F)F)CC(c2cccc(Cl)c2)=C1c1nn[nH]n1 (stereo not drawn) [Example 99]
7,1580 nM,COc1cccc(C2=C(c3nn[nH]n3)C(=O)NC(c3ccc(OCCCC(F)(F)F)cc3)(C(F)(F)F)C2)c1 (stereo not drawn) [Example 100]
8,1090 nM,"COc1ccc(NC(=O)C2=C(c3ccc(C)cc3)CC(C)(C(=O)NCCCC(F)(F)F)NC2=O)cc1 (stereo not drawn) [Example 102, N^5-(4-Methoxyphenyl)-2-methyl-6-oxo-4-p-tolyl-N^2-(4,4,4-trifluorobutyl)-1,2,3,6-tetrahydropyridine-2,5-dicarboxamide]"

row,Compound,IC50
1,"COc1ccc(C2=C[C@](c3ccc(OCCCC(F)(F)F)cc3)(C(F)(F)F)NC(=O)C2(F)C#N)cc1 (single isomer, unassigned) [Example 15-2, 3-Fluoro-4-(4-methoxyphenyl)-2-oxo-6-(4-(4,4,4-trifluorobutoxyl)phenyl)-6-(trifluoromethyl)-1,2,3,6-tetrahydropyridine-3-carbonitrile]",431 nM
2,"COc1ccc(C2=C[C@@](c3ccc(OCCCC(F)(F)F)cc3)(C(F)(F)F)NC(=O)C2(F)C#N)cc1 (stereo in doubt) [Example 15-3, 3-Fluoro-4-(4-methoxyphenyl)-2-oxo-6-(4-(4,4,4-trifluorobutoxyl)phenyl)-6-(trifluoromethyl)-1,2,3,6-tetrahydropyridine-3-carbonitrile]",756 nM
3,"COc1ccc(C2=C[C@@](c3ccc(OCCCC(F)(F)F)cc3)(C(F)(F)F)NC(=O)C2(F)C#N)cc1 (stereo in doubt) [Example 15-4, 3-Fluoro-4-(4-methoxyphenyl)-2-oxo-6-(4-(4,4,4-trifluorobutoxyl)phenyl)-6-(trifluoromethyl)-1,2,3,6-tetrahydropyridine-3-carbonitrile]",2050 nM
4,"CCn1nnc(C2=C(c3ccc(C)cc3)CC(c3ccc(OCCCC(F)(F)F)cc3)(C(F)(F)F)NC2=O)n1 (stereo not drawn) [Example 9, 3-(2-Ethyl-2H-tetrazol-5-yl)-4-p-tolyl-6-(4-(4,4,4-trifluorobutoxyl)phenyl)-6-(trifluoromethyl)-5,6-dihydropyridin-2(1H)-one]",121 nM
5,"COc1ccc(C2=C(C#N)C(=O)NC(c3ccc(OCCCC(F)(F)F)cc3)(C(F)(F)F)C23CC3)cc1 (stereo not drawn) [Example 14, 8-(4-Methoxyphenyl)-6-oxo-4-(4-(4,4,4-trifluorobutoxyl)phenyl)-4-(trifluoro-methyl)-5-azaspiro[2.5]oct-7-ene-7-carbonitrile]",2050 nM
6,"Cc1ccc(C2=C(C(=O)Nc3ccc(C#N)cc3)C(=O)NC(c3ccc(OCCCC(F)(F)F)cc3)(C(F)(F)F)C2(F)F)cc1 (stereo not drawn) [Example 103, N-(4-Cyanophenyl)-5,5-difluoro-2-oxo-4-p-tolyl-6-(4-(4,4,4-trifluorobutoxyl)phenyl)-6-(trifluoromethyl)-1,2,5,6-tetrahydropyridine-3-carboxamide]",645 nM
7,"Cc1ccc(C2=C(N)C(=O)N[C@@](c3ccc(OCCCC(F)(F)F)cc3)(C(F)(F)F)C2)cc1 [Example 104, (S)-3-Amino-4-p-tolyl-6-(4-(4,4,4-trifluorobutoxy)phenyl)-6-(trifluoromethyl)-5,6-dihydropyridin-2(1H)-one]",103 nM
